In patent US20200331925A1, “HETEROCYCLIC COMPOUNDS FOR THE TREATMENT OF ABNORMAL CELLULAR PROLIFERATION” (G1 Therapeutics, Inc., priority 2018, published 2020):

What was measured:
Type in all cases: biochemical
CDK9/Cyclin T = CDK9/Cyclin T (Homo sapiens, UniProt P50750); assay: CDK9/Cyclin T kinase assay (Nanosyn, Caliper microfluidic); settings: 12-point dose-response, ATP at Km (10 μM), 17 hr; Table 5
Method: (§1) Selected compounds disclosed herein were tested in kinase assays by Nanosyn (Santa Clara, Calif.) to determine their inhibitory effect on selected CDKs. The assays were performed using microfluidic kinase detection technology (Caliper Assay Platform). The compounds were tested in 12-point dose-response format in singlicate at Kmfor ATP. Phosphoacceptor substrate peptide concentration used was 1 μM for all assays and Staurosporine was used as the reference compound for all assays. Specifics of each assay are as described below: CDK7/Cyclin Ti: Enzyme concentration: 5 nM; ATP concentration: 10 μM; Incubation time: 17 hr.

CDK4/Cyclin D1 = CDK4/Cyclin D1 (Homo sapiens, UniProt P11802); assay: CDK4/Cyclin D1 kinase assay (Nanosyn, Caliper microfluidic); settings: 12-point dose-response, ATP at Km (200 μM), 3 hr; Table 4
Method: as §1, with “CDK4/Cyclin D1:” for “CDK7/Cyclin Ti:”, “1” for “5”, “200” for “10”, “3” for “17”

CDK6/Cyclin D3 = CDK6/Cyclin D3 (Homo sapiens, UniProt Q00534); assay: CDK6/Cyclin D3 kinase assay (Nanosyn, Caliper microfluidic); settings: 12-point dose-response, ATP at Km (300 μM), 3 hr
Method: as §1, with “CDK6/Cyclin D3:” for “CDK7/Cyclin Ti:”, “2” for “5”, “300” for “10”, “3” for “17”

CDK5/p35 = CDK5/p35 (Homo sapiens, UniProt Q00535); assay: CDK5/p35 kinase assay (Nanosyn, Caliper microfluidic); settings: 12-point dose-response, ATP at Km (20 μM), 3 hr
Method: as §1, with “CDK5/p35:” for “CDK7/Cyclin Ti:”, “0.05” for “5”, “20” for “10”, “3” for “17”

CDK3/Cyclin E = CDK3/Cyclin E (Homo sapiens, UniProt Q00526); assay: CDK3/Cyclin E kinase assay (Nanosyn, Caliper microfluidic); settings: 12-point dose-response, ATP at Km (400 μM), 3 hr
Method: as §1, with “CDK3/Cyclin E:” for “CDK7/Cyclin Ti:”, “1” for “5”, “400” for “10”, “3” for “17”

CDK2/Cyclin A = CDK2/Cyclin A (Homo sapiens, UniProt P24941); assay: CDK2/Cyclin A kinase assay (Nanosyn, Caliper microfluidic); settings: 12-point dose-response, ATP at Km (50 μM), 3 hr
Method: as §1, with “CDK2/Cyclin A:” for “CDK7/Cyclin Ti:”, “0.1” for “5”, “50” for “10”, “3” for “17”

CDK1/Cyclin B1 = CDK1/Cyclin B1 (Homo sapiens, UniProt P06493); assay: CDK1/Cyclin B1 kinase assay (Nanosyn, Caliper microfluidic); settings: 12-point dose-response, ATP at Km (40 μM), 3 hr
Method: as §1, with “CDK1/Cyclin B1:” for “CDK7/Cyclin Ti:”, “0.08” for “5”, “40” for “10”, “3” for “17”

CDK2/Cyclin E = CDK2/Cyclin E (Homo sapiens, UniProt P24941); assay: CDK2/Cyclin E kinase assay (Nanosyn, Caliper microfluidic); settings: 12-point dose-response, ATP at Km (100 μM), 3 hr
Method: as §1, with “CDK2/Cyclin E:” for “CDK7/Cyclin Ti:”, “0.15” for “5”, “100” for “10”, “3” for “17”

CDK7/Cyclin H = CDK7/Cyclin H (Homo sapiens, UniProt P50613); assay: CDK7/Cyclin H kinase assay (Nanosyn, Caliper microfluidic); settings: 12-point dose-response, ATP at Km (50 μM), 17 hr
Method: as §1, with “H:” for “Ti:”, “10” for “5”, “50” for “10”

CDK5/p25 = CDK5/p25 (Homo sapiens, UniProt Q00535); assay: CDK5/p25 kinase assay (Nanosyn, Caliper microfluidic); settings: 12-point dose-response, ATP at Km (20 μM), 3 hr
Method: as §1, with “CDK5/p25:” for “CDK7/Cyclin Ti:”, “0.1” for “5”, “20” for “10”, “3” for “17”

Sequence of CDK4/Cyclin D1 (P11802 whole entry): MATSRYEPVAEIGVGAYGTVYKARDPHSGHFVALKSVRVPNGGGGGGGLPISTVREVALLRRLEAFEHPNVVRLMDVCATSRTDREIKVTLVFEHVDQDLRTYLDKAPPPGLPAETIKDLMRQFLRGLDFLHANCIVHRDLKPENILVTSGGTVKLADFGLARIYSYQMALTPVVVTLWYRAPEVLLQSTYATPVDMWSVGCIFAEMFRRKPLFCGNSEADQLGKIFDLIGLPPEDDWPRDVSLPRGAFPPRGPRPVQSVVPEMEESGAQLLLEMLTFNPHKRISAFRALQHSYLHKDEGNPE
Sequence of CDK4/Cyclin D1 (P24385 whole entry partner): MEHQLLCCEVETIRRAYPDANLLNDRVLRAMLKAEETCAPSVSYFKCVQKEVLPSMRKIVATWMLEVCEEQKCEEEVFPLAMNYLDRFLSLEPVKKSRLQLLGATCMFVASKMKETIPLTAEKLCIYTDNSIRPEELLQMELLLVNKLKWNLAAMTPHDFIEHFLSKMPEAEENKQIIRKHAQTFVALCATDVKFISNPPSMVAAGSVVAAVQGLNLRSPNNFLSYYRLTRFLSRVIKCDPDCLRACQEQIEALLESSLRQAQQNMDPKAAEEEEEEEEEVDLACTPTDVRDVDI
Sequence of CDK6/Cyclin D3 (Q00534 whole entry): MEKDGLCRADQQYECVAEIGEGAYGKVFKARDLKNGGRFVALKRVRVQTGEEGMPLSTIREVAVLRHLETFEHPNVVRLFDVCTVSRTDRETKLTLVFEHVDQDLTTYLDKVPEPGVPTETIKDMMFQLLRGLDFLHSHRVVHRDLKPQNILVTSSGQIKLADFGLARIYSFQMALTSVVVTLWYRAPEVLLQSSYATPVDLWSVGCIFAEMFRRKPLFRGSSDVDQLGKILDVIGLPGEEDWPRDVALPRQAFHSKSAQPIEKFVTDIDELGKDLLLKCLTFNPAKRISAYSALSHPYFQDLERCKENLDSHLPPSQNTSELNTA
Sequence of CDK6/Cyclin D3 (P30281 whole entry partner): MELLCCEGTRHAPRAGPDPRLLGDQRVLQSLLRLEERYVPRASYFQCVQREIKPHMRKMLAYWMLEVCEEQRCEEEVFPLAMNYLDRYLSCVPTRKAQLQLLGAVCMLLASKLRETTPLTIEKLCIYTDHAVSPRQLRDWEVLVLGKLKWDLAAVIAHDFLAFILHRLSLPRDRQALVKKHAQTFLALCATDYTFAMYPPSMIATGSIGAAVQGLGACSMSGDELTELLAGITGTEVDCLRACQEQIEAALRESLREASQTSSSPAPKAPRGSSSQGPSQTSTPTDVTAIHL
Sequence of CDK7/Cyclin H (P50613 whole entry): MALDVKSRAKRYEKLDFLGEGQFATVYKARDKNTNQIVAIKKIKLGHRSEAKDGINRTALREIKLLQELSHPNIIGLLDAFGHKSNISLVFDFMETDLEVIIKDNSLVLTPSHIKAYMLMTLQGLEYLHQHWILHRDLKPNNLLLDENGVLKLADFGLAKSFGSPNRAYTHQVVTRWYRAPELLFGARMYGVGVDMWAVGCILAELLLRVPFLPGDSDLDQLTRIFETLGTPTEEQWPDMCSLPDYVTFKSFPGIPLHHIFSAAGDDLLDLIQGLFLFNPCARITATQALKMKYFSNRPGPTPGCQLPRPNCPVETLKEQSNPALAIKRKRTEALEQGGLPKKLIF
Sequence of CDK7/Cyclin H (P51946 whole entry partner): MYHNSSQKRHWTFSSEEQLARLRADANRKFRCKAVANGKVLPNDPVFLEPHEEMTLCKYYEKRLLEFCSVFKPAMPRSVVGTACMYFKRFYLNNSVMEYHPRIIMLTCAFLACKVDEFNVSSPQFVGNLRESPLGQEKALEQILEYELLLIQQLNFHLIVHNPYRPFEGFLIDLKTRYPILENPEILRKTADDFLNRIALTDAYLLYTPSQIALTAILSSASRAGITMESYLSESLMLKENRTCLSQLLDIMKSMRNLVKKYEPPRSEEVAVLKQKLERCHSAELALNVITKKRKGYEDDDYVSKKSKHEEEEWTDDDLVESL
Sequence of CDK7/Cyclin H (P51948 whole entry partner): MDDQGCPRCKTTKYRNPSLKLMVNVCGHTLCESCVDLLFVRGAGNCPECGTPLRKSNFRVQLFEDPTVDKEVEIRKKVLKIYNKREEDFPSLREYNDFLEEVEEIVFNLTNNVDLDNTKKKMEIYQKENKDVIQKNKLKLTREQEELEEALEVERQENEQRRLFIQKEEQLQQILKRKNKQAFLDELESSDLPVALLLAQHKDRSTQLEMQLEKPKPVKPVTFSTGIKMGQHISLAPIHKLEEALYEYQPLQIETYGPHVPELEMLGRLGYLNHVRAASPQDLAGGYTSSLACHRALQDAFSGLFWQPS
Sequence of CDK5/p25 (Q00535 whole entry): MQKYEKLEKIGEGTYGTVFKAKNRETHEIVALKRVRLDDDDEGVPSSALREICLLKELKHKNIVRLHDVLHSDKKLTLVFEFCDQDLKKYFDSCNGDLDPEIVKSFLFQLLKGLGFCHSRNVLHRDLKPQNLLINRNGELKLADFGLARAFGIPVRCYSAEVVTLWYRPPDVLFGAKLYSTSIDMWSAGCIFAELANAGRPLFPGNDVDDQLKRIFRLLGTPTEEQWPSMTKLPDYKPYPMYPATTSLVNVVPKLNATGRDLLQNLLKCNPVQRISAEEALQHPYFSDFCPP
Sequence of CDK5/p25 (Q15078 99-307 partner limits assumed): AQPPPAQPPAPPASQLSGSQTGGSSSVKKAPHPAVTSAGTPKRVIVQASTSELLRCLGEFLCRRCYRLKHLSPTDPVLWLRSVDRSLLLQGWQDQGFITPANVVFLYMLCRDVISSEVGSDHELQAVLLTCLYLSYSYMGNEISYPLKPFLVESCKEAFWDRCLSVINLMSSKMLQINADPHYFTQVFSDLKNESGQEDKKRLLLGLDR
Sequence of CDK5/p35 (Q00535 whole entry): as the sequence (Q00535 whole entry) above
Sequence of CDK5/p35 (Q15078 whole entry partner): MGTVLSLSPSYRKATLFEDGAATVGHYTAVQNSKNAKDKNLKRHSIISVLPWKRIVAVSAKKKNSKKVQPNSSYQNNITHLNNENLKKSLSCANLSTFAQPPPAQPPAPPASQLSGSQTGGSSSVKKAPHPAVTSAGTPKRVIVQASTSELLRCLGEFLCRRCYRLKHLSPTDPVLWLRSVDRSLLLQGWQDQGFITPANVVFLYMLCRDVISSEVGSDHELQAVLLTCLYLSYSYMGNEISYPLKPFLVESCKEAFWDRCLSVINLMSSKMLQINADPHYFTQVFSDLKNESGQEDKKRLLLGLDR
Sequence of CDK9/Cyclin T (P50750 whole entry): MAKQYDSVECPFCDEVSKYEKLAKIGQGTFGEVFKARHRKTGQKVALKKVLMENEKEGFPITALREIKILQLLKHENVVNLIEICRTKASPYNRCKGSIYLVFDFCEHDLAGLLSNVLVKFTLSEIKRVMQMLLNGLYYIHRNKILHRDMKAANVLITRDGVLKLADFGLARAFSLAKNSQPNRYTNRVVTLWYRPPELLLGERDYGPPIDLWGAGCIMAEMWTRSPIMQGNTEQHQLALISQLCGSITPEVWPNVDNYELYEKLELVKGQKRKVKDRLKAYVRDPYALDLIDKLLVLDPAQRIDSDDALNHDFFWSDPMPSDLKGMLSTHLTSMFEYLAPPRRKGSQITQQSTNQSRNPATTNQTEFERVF
Sequence of CDK9/Cyclin T (O60563 whole entry partner): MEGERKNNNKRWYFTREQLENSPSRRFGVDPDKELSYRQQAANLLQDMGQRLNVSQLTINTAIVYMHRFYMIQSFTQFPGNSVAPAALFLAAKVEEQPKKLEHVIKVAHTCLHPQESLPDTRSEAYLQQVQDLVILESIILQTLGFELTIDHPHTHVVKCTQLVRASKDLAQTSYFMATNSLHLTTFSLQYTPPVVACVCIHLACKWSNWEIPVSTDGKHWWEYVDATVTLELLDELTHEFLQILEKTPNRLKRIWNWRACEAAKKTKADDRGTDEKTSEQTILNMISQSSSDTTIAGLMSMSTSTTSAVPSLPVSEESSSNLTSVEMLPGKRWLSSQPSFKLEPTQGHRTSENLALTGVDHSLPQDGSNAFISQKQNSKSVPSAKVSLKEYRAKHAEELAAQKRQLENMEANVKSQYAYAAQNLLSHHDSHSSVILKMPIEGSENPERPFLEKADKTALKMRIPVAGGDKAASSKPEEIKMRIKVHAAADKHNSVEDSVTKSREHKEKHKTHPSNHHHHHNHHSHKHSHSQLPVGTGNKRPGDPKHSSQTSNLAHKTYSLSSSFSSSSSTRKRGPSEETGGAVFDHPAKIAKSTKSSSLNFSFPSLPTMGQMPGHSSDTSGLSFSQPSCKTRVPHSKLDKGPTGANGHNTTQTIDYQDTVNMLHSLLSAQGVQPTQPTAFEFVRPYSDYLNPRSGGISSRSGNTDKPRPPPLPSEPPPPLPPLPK

Row | SMILES | IC50 (CDK9/Cyclin T) | IC50 (CDK4/Cyclin D1) | IC50 (CDK6/Cyclin D3) | IC50 (CDK5/p35) | IC50 (CDK3/Cyclin E) | IC50 (CDK2/Cyclin A) | IC50 (CDK1/Cyclin B1) | IC50 (CDK2/Cyclin E) | IC50 (CDK7/Cyclin H) | IC50 (CDK5/p25)
1 | O=C1NCC2(CCCCC2)n2c1cc1cnc(NC(=O)[C@H]3CNCC[C@H]3c3ccccc3)nc12 [Compound 28, (3R,4R)-N-(6′-oxo-7′,8′-dihydro-6′H-spiro[cyclohexane-1,9′-pyrazino[1′,2′:1,5]pyrrolo[2,3-d]pyrimidin]-2′-yl)-4-phenylpiperidine-3-carboxamide] | 0.24 µM | 9 µM | > 100 µM | > 100 µM | > 100 µM | 67 µM | 93 µM | > 100 µM | > 100 µM | > 100 µM
2 | O=C(C[C@@H]1CCCN1)Nc1ncc2cc3n(c2n1)C1(CCCCC1)CNC3=O [Compound 34, (S)-N-(6′-oxo-7′,8′-dihydro-6′H-spiro[cyclohexane-1,9′-pyrazino[1′,2′:1,5]pyrrolo[2,3-d]pyrimidin]-2′-yl)-2-(pyrrolidin-2-yl)acetamide] | 0.19 µM | 2.9 µM | 8.4 µM | 29 µM | 33 µM | 12 µM | 18 µM | 27 µM | 17 µM | 52 µM
3 | O=C1NCC2(CCCCC2)n2c1cc1cnc(NC(=O)[C@H]3CNCCN3)nc12 [Compound 36, (R)-N-(6′-oxo-7′,8′-dihydro-6′H-spiro[cyclohexane-1,9′-pyrazino[1′,2′:1,5]pyrrolo[2,3-d]pyrimidin]-2′-yl)piperazine-2-carboxamide] | 0.24 µM | 9.4 µM | 82 µM | > 100 µM | > 100 µM | 88 µM | > 100 µM | > 100 µM | > 100 µM | > 100 µM
4 | O=C(C[C@H]1CCCN1)Nc1ncc2cc3n(c2n1)C1(CCCCC1)CNC3=O [Compound 37, (R)-N-(6′-oxo-7′,8′-dihydro-6′H-spiro[cyclohexane-1,9′-pyrazino[1′,2′:1,5]pyrrolo[2,3-d]pyrimidin]-2′-yl)-2-(pyrrolidin-2-yl)acetamide] | 0.12 µM | 6.3 µM | 14 µM | 28 µM | 38 µM | 16 µM | 27 µM | 29 µM | 17 µM | 31 µM

The next compounds have a lower IC50 (CDK9/Cyclin T) than those just listed; values first:

Row | IC50 (CDK9/Cyclin T) | IC50 (CDK4/Cyclin D1) | IC50 (CDK6/Cyclin D3) | IC50 (CDK5/p35) | IC50 (CDK3/Cyclin E) | IC50 (CDK2/Cyclin A) | IC50 (CDK1/Cyclin B1) | IC50 (CDK2/Cyclin E) | IC50 (CDK7/Cyclin H) | IC50 (CDK5/p25) | SMILES
5 | 0.045 µM | 1.5 µM | 15 µM | 8 µM | 6.9 µM | 1.9 µM | 3.8 µM | 5.4 µM | 4.5 µM | 8.4 µM | C[C@H]1NCCC[C@H]1C(=O)Nc1ncc2cc3n(c2n1)C1(CCCCC1)CNC3=O [Compound 30, (2R,3R)-2-methyl-N-(6′-oxo-7′,8′-dihydro-6′H-spiro[cyclohexane-1,9′-pyrazino[1′,2′:1,5]pyrrolo[2,3-d]pyrimidin]-2′-yl)piperidine-3-carboxamide]
6 | 0.012 µM | 2.3 µM | 14 µM | 16 µM | 8.6 µM | 3.1 µM | 5.6 µM | 12 µM | 12 µM | 19 µM | O=C1NCC2(CCCCC2)n2c1cc1cnc(NC(=O)[C@@H]3CCNC3)nc12 [Compound 32, (R)-N-(6′-oxo-7′,8′-dihydro-6′H-spiro[cyclohexane-1,9′-pyrazino[1′,2′:1,5]pyrrolo[2,3-d]pyrimidin]-2′-yl)pyrrolidine-3-carboxamide]
7 | 0.035 µM | 3.3 µM | 12 µM | 34 µM | 23 µM | 6.1 µM | 16 µM | 26 µM | 20 µM | 34 µM | O=C1NCC2(CCCCC2)n2c1cc1cnc(NC(=O)[C@H]3CCNC3)nc12 [Compound 33, (S)-N-(6′-oxo-7′,8′-dihydro-6′H-spiro[cyclohexane-1,9′-pyrazino[1′,2′:1,5]pyrrolo[2,3-d]pyrimidin]-2′-yl)pyrrolidine-3-carboxamide]
8 | 0.088 µM | 27 µM | > 100 µM | 40 µM | 54 µM | 10 µM | 31 µM | 26 µM | 61 µM | 43 µM | O=C1NCC2(CCCCC2)n2c1cc1cnc(NC(=O)[C@H]3CNCCO3)nc12 [Compound 35, (R)-N-(6′-oxo-7′,8′-dihydro-6′H-spiro[cyclohexane-1,9′-pyrazino[1′,2′:1,5]pyrrolo[2,3-d]pyrimidin]-2′-yl)morpholine-2-carboxamide]
9 | 0.013 µM | 0.0095 µM | 0.048 µM | 1.5 µM | 0.42 µM | 0.14 µM | 1.2 µM | 0.3 µM | 0.5 µM | 1.6 µM | CN1CCN([C@H]2CC[C@@H](Nc3ncc4cc5n(c4n3)C3(CCCCC3)CNC5=S)CC2)CC1 [Compound 39, 2′-(((1s,4s)-4-(4-methylpiperazin-1-yl)cyclohexyl)amino)-7′,8′-dihydro-6′H-spiro[cyclohexane-1,9′-pyrazino[1′,2′:1,5]pyrrolo[2,3-d]pyrimidine]-6′-thione]
